≈ marks a conversion by molar mass, not a printed value. Where “and” joins values, the source holds several entries; their conditions need not be identical. Equal values may be shown once.
What was measured:
bovine tubulin = assay: Inhibition of the polymerization of bovine tubulin (in vitro); assay type: biochemical; conditions: for Inhibition at 10 μg/ml [%]: tubulin with 30% associated proteins (MAPs), repeat values; for EC50 of polymerization inhibition of tubulin: bovine tubulin with 30% associated proteins (MAPs)
From the text: In this test, tubulin purified by polymerization and depolymerization cycles is used, which is polymerized by addition of GTP and heating.
Table 1 states the %-inhibition values and Table 2 states the EC50 values of polymerization inhibition of tubulin with 30% associated proteins (MAPs).

[1] = system: lung carcinoma cell line NCI-H460; assay: Proliferation test (cellular dehydrogenase activity), NCI-H460; assay type: cell-based; conditions: Homo sapiens
From the text: (§1) The antiproliferative activity of the compounds 1, 2, 4, 6, 7, 9, 10, 11, 12 and 13 according to the invention was investigated in a proliferation test performed on established tumor cell lines (D. A. Scuderio et al. Cancer Res. 1988, 48: 4827-4833).
(§2) The test used determines the cellular dehydrogenase activity and makes it possible to determine cell viability and determine cell number indirectly.
(§3) The cell lines used are the human cervical carcinoma cell line KB/HeLa (ATCC CCL17), the ovarian adenocarcinoma cell line SKOV-3 (ATCC HTB77), the human glioblastoma cell line SF-268 (NCI-503138) and the lung carcinoma cell line NCI-H460 (NCI-503473). In addition, an RKOp27 cell system was used for investigating the cell cycle-specific effect of the substance (M. Schmidt et al. Oncogene 2000, 19(20): 2423-9).

[2] = system: human cervical carcinoma cell line KB/HeLa; assay: Proliferation test (cellular dehydrogenase activity), KB/HeLa; assay type: cell-based
From the text: as §1, §2, §3

[3] = system: RKOp27 human colon carcinoma cells; assay: Proliferation test, RKOp27 cell system without p27kiP1 expression; assay type: cell-based; conditions: RKOp27 without expression of p27kiP1
From the text: as §1, §2, §3
(§4) RKO is a human colon carcinoma line in which expression of the cell cycle inhibitor p27^kiP1 can be induced using the ecdysone expression system and lead to cell cycle arrest specifically in […].
(§5) By contrast, cell cycle-specific substances, such as, for example, tubulin inhibitors, are only cytotoxic when cells are not arrested and the cell cycle is passed through.

[4] = system: RKOp27 human colon carcinoma cells, p27kiP1 induced; assay: Proliferation test, RKOp27 cell system with induced p27kiP1 expression; assay type: cell-based; conditions: RKOp27 with induced expression of p27kiP1, read-out: RKOP27ind EC50
From the text: as §1, §2, §3, §4, §5

porcine brain tubulin = system: T1, porcine brain tubulin; assay: Inhibition of the polymerization of porcine brain tubulin (turbidimetric); assay type: biochemical; conditions: porcine brain tubulin with about 15% MAPs, GTP, 37° C.
T1 construct: In addition to tubulin, the protein used comprises about 15% of associated proteins (MAPs)
Method: b) In an in vitro test, the compounds 1, 2, 4 and 7 were tested for inhibition of the polymerization of porcine brain tubulin. In this test, tubulin purified by polymerization and depolymerization cycles is used (Shelanski et al. Proc. Natl. Acad. Sci. U.S.A. 1973, 70, 765-768 modified according to Vater et al. Acta Histochem. Suppl. 1986, 33, 123-129), which is polymerized by addition of GTP and heating to 37° C. In addition to tubulin, the protein used comprises about 15% of associated proteins (MAPs). The measurement values were determined turbidimetrically according to Gaskin et al. J. Mol. Biol. 89 (1974) 737-755.
Table 3 states the EC50 value of the polymerization inhibition.

[5] = system: ovarian adenocarcinoma cell line SKOV-3; assay: Proliferation test (cellular dehydrogenase activity), SK-OV-3; assay type: cell-based; conditions: Homo sapiens
From the text: as §1, §2, §3

[6] = system: human glioblastoma cell line SF-268; assay: Proliferation test (cellular dehydrogenase activity), SF-268; assay type: cell-based
From the text: as §1, §2, §3

[7] = system: doxorubicin-resistant P388 cell line; assay: XTT antiproliferative test, doxorubicin-resistant P388; assay type: cell-based, murine
From the text: (§6) For further characterization, the compounds 6 and 7 according to the invention were investigated with regard to multidrug-resistant (MDR) cell lines as compared with the nonresistant wild-type cell lines.
(§7) The murine P388 cell line (methylcholanthrene-induced lymphoid neoplasm) [R. Supino et al.; Inst. Nazionale per lo Studio e las cura die Tumori; Milan)] and the doxorubicin-resistant P388 cell line (NSC-123127) were also included as test systems.

[8] = system: acute myeloid leukaemia cell line LT12; assay: XTT antiproliferative test, LT12; assay type: cell-based; conditions: LT12 wild type
From the text: as §6
(§8) The cell lines which were investigated are the murine cell line L1210 (ATCC CCL219), the acute myeloid leukaemia cell line LT12 (De Vries et al.; University Rotterdam) and the resistant lines L1210/VCR (Asta Medica Laboratory) and LT12/mdr (De Vries et al.; University Rotterdam).

murine P388 cell line = assay: XTT antiproliferative test, P388; assay type: cell-based; conditions: P388 wild type
From the text: as §6, §7

murine cell line L1210 = assay: XTT antiproliferative test, L1210; assay type: cell-based; conditions: L1210 wild type
From the text: as §6, §8

| Structure (SMILES) | melting point [°C] | Inhibition at 10 μg/ml [%] (bovine tubulin) | EC50 [1] [µg/mL] | EC50 [2] [µg/mL] | EC50 [3] [µg/mL] | EC50 [4] [µg/mL] | other results |
| --- | --- | --- | --- | --- | --- | --- | --- |
| O=C(O)C=C1c2ccccc2C(=O)c2ccccc21 [Compound 17, (10-oxo-10H-anthracen-9-ylidene)-acetic acid] | 180 to 182 |  |  |  |  |  |  |
| COc1cccc(C(=O)C=C2c3ccccc3C(=O)c3ccccc32)c1 [Compound 13, 10-[2-(3-methoxy-phenyl)-2-oxo-ethylidne]-10H-anthracen-9-one] |  | 72.6% and 85.9% and 87.3% and 93.7% | 1.16 (≈ 3.41 µM) | 1.89 (≈ 5.55 µM) | 1.1 (≈ 3.23 µM) | > 3.16 |  |
| COc1ccc(C(=O)C=C2c3ccccc3C(O)c3ccccc32)cc1 (stereo not drawn) [Compound 4, 2-(10-hydroxy-10H-anthracen-9-ylidene)-1-(4-methoxy-phenyl)-ethanone] | 169 to 172 |  | 0.203 (≈ 0.593 µM) | 0.181 (≈ 0.529 µM) | 0.108 (≈ 0.315 µM) | > 3.16 | EC50 of the polymerization inhibition (porcine brain tubulin): 1.2 µg/mL; EC50 [5]: 0.171 µg/mL (≈ 0.499 µM); EC50 [6]: 0.227 µg/mL (≈ 0.663 µM) |
| O=C(C=C1c2ccccc2C(=O)c2ccccc21)c1ccc(O)cc1 [Compound 10, 10-[2-(4-hydroxy-phenyl)-2-oxo-ethylidene]-10H-anthracen-9-one] | 211 to 212 | 85.0% and 94.8% and 98.4% and 98.6% | 1.34 (≈ 4.11 µM) | 2.65 (≈ 8.12 µM) | 1.38 (≈ 4.23 µM) | > 3.16 | EC50 of polymerization inhibition of tubulin (bovine tubulin): 4.87 µg/mL |
| COc1cc(C(=O)C=C2c3ccccc3C(=O)c3ccccc32)cc(OC)c1OC [Compound 16, 10-[2-oxo-2-(3,4,5-trimethoxy-phenyl)-ethylidene]-10H-anthracen-9-one] | 151 to 152 | 65.0% and 65.5% and 61.9% |  |  |  |  |  |
| O=C1c2ccccc2C(=CC(=O)N2CCSCC2)c2ccccc21 [Compound 3, 10-(2-oxo-2-thiomorpholin-4-ylethylidene)-10H-anthracen-9-one] | 177 to 178 |  |  |  |  |  |  |
| O=C(C=C1c2ccccc2C(=O)c2ccccc21)c1cccc(O)c1 [Compound 12, 10-[2-(3-hydroxy-phenyl)-2-oxo-ethylidene]-10H-anthracen-9-one] | 185 | 83.1% and 95.0% and 92.7% and 86.9% | 0.61 (≈ 1.87 µM) | 1.4 (≈ 4.29 µM) | 0.63 (≈ 1.93 µM) | > 3.16 | EC50 [5]: 3.03 µg/mL (≈ 9.28 µM); EC50 [6]: 2.22 µg/mL (≈ 6.8 µM) |
| COc1ccc(C(=O)C=C2c3ccccc3C(=O)c3ccccc32)cc1OC [Compound 6, 10-[2-(3,4-dimethoxy-phenyl)-2-oxo-ethylidene]-9(10H)-anthracenone] | 160 | 68.9% and 86.1% and 99.0% | 0.29 (≈ 0.783 µM) | 0.458 (≈ 1.24 µM) | 0.24 (≈ 0.648 µM) | > 3.16 | IC50 ([7]; Mus musculus, P388, XTT, read-out: P388ADR IC50): 0.25 µg/mL (≈ 0.675 µM); P388ADR IC50 ([7]; XTT): 0.49 µg/mL; IC50 ([8]; Rattus norvegicus, LT12, XTT): 0.1 µg/mL (≈ 0.27 µM); LT12 IC50 ([8]; XTT): 0.17 µg/mL; IC50 (murine P388 cell line; Mus musculus, P388, XTT): 0.35 µg/mL (≈ 0.945 µM); P388 IC50 (murine P388 cell line; XTT): 0.39 µg/mL; IC50 (murine cell line L1210; Mus musculus, L1210, XTT): 0.32 µg/mL (≈ 0.864 µM); L1210 IC50 (murine cell line L1210; XTT): 0.35 µg/mL |
| COc1ccc(N2CCN(C(=O)C=C3c4ccccc4C(=O)c4ccccc43)CC2)cc1 [Compound 5, 10-{2-[4-(4-methoxy-phenyl)-piperazin-1-yl]-2-oxo-ethylidene}-10H-anthracen-9-one] | 189 to 190 |  |  |  |  |  |  |
| Cc1ccc(C(=O)C=C2c3ccccc3C(=O)c3ccccc32)cc1 [Compound 9, 10-(2-oxo-2-p-tolyl-ethylidene)-10H-anthracen-9-one] | 129 | 98.3% and 99.8% and 100.0% | 0.11 (≈ 0.339 µM) | 0.2 (≈ 0.617 µM) | 0.09 (≈ 0.277 µM) | > 3.16 | EC50 of polymerization inhibition of tubulin (bovine tubulin): 0.49 µg/mL; EC50 [5]: 0.13 µg/mL (≈ 0.401 µM); EC50 [6]: 0.2 µg/mL (≈ 0.617 µM) |
| COc1ccc(C(=O)C=C2c3ccccc3C(=O)c3ccccc32)c(O)c1OC [Compound 8, 10-[2-(2-hydroxy-3,4-dimethoxy-phenyl)-2-oxo-ethylidene]-10H-anthracen-9-one] | 176 to 178 |  |  |  |  |  |  |
| COC(=O)C=C1c2ccccc2C(=O)c2ccccc21 [Compound 15, (10-oxo-10H-anthracen-9-ylidene)-acetic acid methyl ester] | 113 |  |  |  |  |  |  |
| COc1csc(C(=O)C=C2c3ccccc3C(=O)c3ccccc32)c1 [Compound 2, 10-[2-(4-methoxy-thiophen-2-yl)-2-oxo-ethylidene]-10H-anthracen-9-one] | 200 to 201 |  | 0.931 (≈ 2.69 µM) | 0.248 (≈ 0.716 µM) | 0.802 (≈ 2.32 µM) | > 3.16 | EC50 of the polymerization inhibition (porcine brain tubulin): 2.3 µg/mL; EC50 [5]: 0.416 µg/mL (≈ 1.2 µM); EC50 [6]: 0.331 µg/mL (≈ 0.956 µM) |
| O=C(C=C1c2ccccc2C(=O)c2ccccc21)c1ccccc1 [Compound 18, 10-(2-oxo-2-phenyl-ethylidene)-10H-anthracen-9-one] | 128 | 54.9% and 69.9% and 79.8% and 71.0% |  |  |  |  |  |
| O=C(C=C1c2ccccc2C(=O)c2ccccc21)c1cccs1 [Compound 11, 10-(2-oxo-2-thiophen-2-yl-ethylidene)-10H-anthracen-9-one] | 126 |  | 1.05 (≈ 3.32 µM) | 2.65 (≈ 8.38 µM) |  | > 3.16 |  |

From patent publication US20080051463A1, “ANTHRACENE COMPOUNDS AND THEIR USE FOR TREATING BENIGN AND MALIGNANT TUMOR DISORDERS” (AETERNA ZENTARIS GmbH, priority 2006, published 2008)
